Laboratory results published in US20230357249A1, “ANDROGEN RECEPTOR PROTEIN DEGRADERS WITH A TRICYCLIC CEREBLON LIGAND” (THE REGENTS OF THE UNIVERSITY OF MICHIGAN, priority 2020, published 2023).

Target: T1, AR protein (Homo sapiens, UniProt P10275)
T1 construct: endogenous in cells; host or cells: VCaP
T1 sequence (P10275 1-920): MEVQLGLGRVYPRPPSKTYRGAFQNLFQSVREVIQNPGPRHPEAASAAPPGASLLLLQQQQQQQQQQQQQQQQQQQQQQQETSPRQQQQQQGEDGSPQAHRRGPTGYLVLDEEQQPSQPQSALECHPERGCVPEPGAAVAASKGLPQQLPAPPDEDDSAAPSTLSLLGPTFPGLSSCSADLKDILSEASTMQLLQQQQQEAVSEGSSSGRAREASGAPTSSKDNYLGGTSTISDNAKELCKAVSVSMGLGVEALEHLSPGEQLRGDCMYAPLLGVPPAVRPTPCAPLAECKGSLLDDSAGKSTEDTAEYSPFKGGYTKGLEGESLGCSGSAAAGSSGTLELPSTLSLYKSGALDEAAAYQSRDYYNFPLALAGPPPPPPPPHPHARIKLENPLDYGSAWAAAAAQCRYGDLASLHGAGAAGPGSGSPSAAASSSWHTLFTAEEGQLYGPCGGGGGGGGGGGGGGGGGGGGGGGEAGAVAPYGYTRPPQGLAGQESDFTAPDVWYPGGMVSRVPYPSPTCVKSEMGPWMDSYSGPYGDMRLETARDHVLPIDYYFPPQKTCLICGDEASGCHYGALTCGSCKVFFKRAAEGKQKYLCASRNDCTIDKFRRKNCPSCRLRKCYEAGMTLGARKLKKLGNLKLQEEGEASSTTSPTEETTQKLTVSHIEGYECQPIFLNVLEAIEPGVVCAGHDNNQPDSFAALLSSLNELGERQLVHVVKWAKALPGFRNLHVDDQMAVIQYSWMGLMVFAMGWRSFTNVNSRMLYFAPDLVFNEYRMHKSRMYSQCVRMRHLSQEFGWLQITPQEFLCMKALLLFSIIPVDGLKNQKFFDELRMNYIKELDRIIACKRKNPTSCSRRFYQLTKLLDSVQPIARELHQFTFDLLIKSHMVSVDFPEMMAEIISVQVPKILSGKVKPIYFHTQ
Assay: AR protein degradation in VCaP cells, Western blotting
Type: cell-based
Design: key to AR protein degradation VCap 10 nM / AR protein degradation VCap 100 nM: A: >90% degradation (24 hr treatment); B: >50% degradation but <90% (24 hr treatment); C: >10% degradation but <50% (24 hr treatment); D: No significant degradation (24 hr treatment)
Conditions: 24 hr treatment; for percent AR protein degradation at 0.01 µM / AR protein degradation VCap 10 nM: 10 nM; for percent AR protein degradation at 0.1 µM / AR protein degradation VCap 100 nM: 100 nM
Protocol: The appropriate cell line, e.g., prostate cancer LNCaP, Vcap, or 22RV1 cell line, was treated with Compounds of the Disclosure as indicated. The treated cells were lysed with RIPA buffer. The AR level in the cell lysates was examined by western blotting and a specific AR antibody (ab194196, Abcam, Cambridge, MA 02139) with concentration of 1:20,000. GAPDH was used as a loading control.
Bands were quantified with ImageJ software. The relative numbers of each band obtained from normalization with its corresponding GAPDH level were compared with Prism 8 software. The DC50 values were produced from Prism 8, and the DC90 values were calculated with an equation=Bottom + (Top-Bottom)/(1+10^((LogEC50-X)*HillSlope) based on DC50 and Hillslope values.
The amount of AR protein degradation in VCap and MDA-MB-453 cells caused by representative Compounds of the Disclosure at the concentrations indicated is presented in Table 4, FIG. 1, and FIG. 2.

AR protein degradation VCap 10 nM	AR protein degradation VCap 100 nM	SMILES	percent AR protein degradation at 0.01 µM [%]	percent AR protein degradation at 0.1 µM [%]
–	–	N#Cc1ccc(O[C@H]2CC[C@H](NC(=O)c3ccc4c(c3)CCN(CC(=O)N3CCc5cc6c(cc5C3)C(=O)N(C3CCC(=O)NC3=O)C6=O)CC4)CC2)cc1Cl (stereo partly drawn) [compound 29]	50 to 90	> 90
–	–	C[C@H]1CCN(c2ccc(C(=O)N3CCC(N4Cc5cc6c(cc5C4)C(=O)N(C4CCC(=O)NC4=O)C6=O)CC3)cc2)CCN1c1ccc(C#N)c(Cl)c1 (stereo partly drawn) [compound 119]	50 to 90	50 to 90
–	–	C[C@H]1CCN(c2ccc(C(=O)N3CCC(CN4Cc5cc6c(cc5C4)C(=O)N(C4CCC(=O)NC4=O)C6=O)CC3)cc2)CCN1c1ccc(C#N)c(Cl)c1 (stereo partly drawn) [compound 120]	50 to 90	50 to 90
D	D	C[C@@H]1CCN(C(=O)c2ccc(N3CCC(CN4Cc5cc6c(cc5C4)C(=O)N(C4CCC(=O)NC4=O)C6=O)CC3)cc2)C[C@H]1Oc1ccc(C#N)c(Cl)c1 (stereo partly drawn) [compound 121]	–	–
D	D	C[C@@H]1CN(C(=O)c2ccc(N3CCC(CN4Cc5cc6c(cc5C4)C(=O)N(C4CCC(=O)NC4=O)C6=O)CC3)cc2)C[C@H]1Oc1ccc(C#N)c(Cl)c1 (stereo partly drawn) [compound 122]	–	–
D	–	N#Cc1ccc(OC2CC3(CC(NC(=O)c4ccc(N5CCC(CN6Cc7cc8c(cc7C6)C(=O)N(C6CCC(=O)NC6=O)C8=O)CC5)cc4)C3)C2)cc1Cl (stereo not drawn) [compound 124]	–	50 to 90
D	–	N#Cc1ccc(OC2CCC3(CC2)CC(NC(=O)c2ccc(N4CCC(CN5Cc6cc7c(cc6C5)C(=O)N(C5CCC(=O)NC5=O)C7=O)CC4)cc2)C3)cc1Cl (stereo not drawn) [compound 125]	–	10 to 50
D	–	N#Cc1ccc(OC2CC3(CCC(NC(=O)c4ccc(N5CCC(CN6Cc7cc8c(cc7C6)C(=O)N(C6CCC(=O)NC6=O)C8=O)CC5)cc4)CC3)C2)cc1Cl (stereo not drawn) [compound 126]	–	10 to 50
D	D	N#Cc1ccc(OC2CCN(C(=O)Nc3ccc(C(=O)N4CCC(CN5Cc6cc7c(cc6C5)C(=O)N(C5CCC(=O)NC5=O)C7=O)CC4)cc3)CC2)cc1Cl (stereo not drawn) [compound 132]	–	–
–	–	N#Cc1ccc(O[C@H]2CC[C@H](N3Cc4cc(C(=O)N5CCC(N6Cc7cc8c(cc7C6)C(=O)N(C6CCC(=O)NC6=O)C8=O)CC5)ccc4C3=O)CC2)cc1Cl (stereo partly drawn) [compound 173]	10 to 50	> 90
D	–	N#Cc1ccc(O[C@H]2CC[C@H](N3Cc4cc(C(=O)N5CCC(CN6Cc7cc8c(cc7C6)C(=O)N(C6CCC(=O)NC6=O)C8=O)CC5)ccc4C3=O)CC2)cc1Cl (stereo partly drawn) [compound 174]	–	> 90
–	–	CC1(C)C(Nc2ccc(C(=O)N3CCC(CN4Cc5cc6c(cc5C4)C(=O)N(C4CCC(=O)NC4=O)C6=O)CC3)cc2)C(C)(C)C1Oc1ccc(C#N)c(Cl)c1 (stereo not drawn) [compound 175]	10 to 50	50 to 90
–	–	CC1(C)C(Nc2ccc(C(=O)N3CCC(N4Cc5cc6c(cc5C4)C(=O)N(C4CCC(=O)NC4=O)C6=O)CC3)cc2)C(C)(C)C1Oc1ccc(C#N)c(Cl)c1 (stereo not drawn) [compound 176]	10 to 50	> 90
–	–	CN(c1ccc(C#N)c(Cl)c1)[C@H]1CC[C@H](NC(=O)c2ccc(CN3CCC(N4Cc5cc6c(cc5C4)C(=O)N(C4CCC(=O)NC4=O)C6=O)CC3)cc2)CC1 (stereo partly drawn) [compound 278]	> 90	> 90
–	–	CN(c1ccc(C#N)c(Cl)c1)[C@H]1CC[C@H](NC(=O)c2ccc([C@H]3CC[C@H](CN4Cc5cc6c(cc5C4)C(=O)N(C4CCC(=O)CC4=O)C6=O)CC3)cc2)CC1 (stereo partly drawn) [compound 280]	> 90	> 90
–	–	CN(c1ccc(C#N)c(Cl)c1)[C@H]1CC[C@H](NC(=O)c2ccc(O[C@H]3CC[C@H](N4Cc5cc6c(cc5C4)C(=O)N(C4CCC(=O)NC4=O)C6=O)CC3)cc2)CC1 (stereo partly drawn) [compound 281, N-((1r,4r)-4-((3-Chloro-4-Cyanophenyl)(Methyl)Amino)Cyclohexyl)-4-(((1r,4r)-4-(6-(2,6-Dioxopiperidin-3-Yl)-5,7-Dioxo-3,5,6,7-Tetrahydropyrrolo[3,4-F]Isoindol-2(1h)-Yl)Cyclohexyl)Oxy)Benzamide]	> 90	> 90
–	–	CN(c1ccc(C#N)c(Cl)c1)[C@H]1CC[C@H](NC(=O)c2ccc([C@H]3CC[C@H](CN4Cc5cc6c(cc5C4)C(=O)N(C4CCC(=O)NC4=O)C6=O)CC3)cn2)CC1 (stereo partly drawn) [compound 313]	> 90	> 90
–	–	CN(c1ccc(C#N)c(Cl)c1)[C@H]1CC[C@H](NC(=O)c2ccc(N3CCC(CN4Cc5cc6c(cc5C4)C(=O)N(C4CCC(=O)NC4=O)C6=O)CC3)nc2)CC1 (stereo partly drawn) [compound 323]	> 90	> 90
–	–	CN(c1ccc(C#N)c(Cl)c1)[C@H]1CC[C@H](NC(=O)c2ccc(N3CCC(CN4Cc5cc6c(cc5C4)C(=O)N(C4CCC(=O)NC4=O)C6=O)CC3)cn2)CC1 (stereo partly drawn) [compound 324]	> 90	> 90
–	–	CN(c1ccc(C#N)c(Cl)c1)[C@H]1CC[C@H](NC(=O)c2ccc(N3CCC(CN4Cc5cc6c(cc5C4)C(=O)N(C4CCC(=O)NC4=O)C6=O)CC3)nn2)CC1 (stereo partly drawn) [compound 325]	> 90	> 90
–	–	CN(c1ccc(C#N)c(Cl)c1)[C@H]1CC[C@H](NC(=O)c2ccc(CN3CCC(C(=O)N4Cc5cc6c(cc5C4)C(=O)N(C4CCC(=O)NC4=O)C6)CC3)cc2)CC1 (stereo partly drawn) [compound 326]	> 90	> 90
–	–	CN(c1ccc(C#N)c(Cl)c1)[C@H]1CC[C@H](NC(=O)c2ccc(N3CCN(CC(=O)N4Cc5cc6c(cc5C4)C(=O)N(C4CCC(=O)NC4=O)C6)CC3)cc2)CC1 (stereo partly drawn) [compound 327, N-((1r,4r)-4-((3-Chloro-4-Cyanophenyl)(Methyl)Amino)Cyclohexyl)-4-(4-(2-(6-(2,6-Dioxopiperidin-3-Yl)-5-Oxo-3,5,6,7-Tetrahydropyrrolo[3,4-F]Isoindol-2(1h)-Yl)-2-Oxoethyl)Piperazin-1-Yl)Benzamide]	> 90	> 90
–	–	CN(c1ccc(C#N)c(Cl)c1)[C@H]1CC[C@H](NC(=O)c2ccc(C3CCN(CC(=O)N4Cc5cc6c(cc5C4)C(=O)N(C4CCC(=O)NC4=O)C6)CC3)cc2)CC1 (stereo partly drawn) [compound 328, N-((1r,4r)-4-((3-Chloro-4-Cyanophenyl)(Methyl)Amino)Cyclohexyl)-4-(1-(2-(6-(2,6-Dioxopiperidin-3-Yl)-5-Oxo-3,5,6,7-Tetrahydropyrrolo[3,4-F]Isoindol-2(1h)-Yl)-2-Oxoethyl)Piperidin-4-Yl)Benzamide]	> 90	> 90

SMILES	AR protein degradation VCap 10 nM	AR protein degradation VCap 100 nM	percent AR protein degradation at 0.01 µM [%]	percent AR protein degradation at 0.1 µM [%]
N#Cc1ccc(OC2CCN(C(=O)Oc3ccc(C(=O)N4CCC(CN5Cc6cc7c(cc6C5)C(=O)N(C5CCC(=O)NC5=O)C7=O)CC4)cc3)CC2)cc1Cl (stereo not drawn) [compound 131]	D	–	–	10 to 50
